Patent US11752122B2 (OKLAHOMA MEDICAL RESEARCH FOUNDATION, priority 2018, dated 2023)
Entries after “also recorded” stand apart in the source; their conditions may differ. Where two headings read alike, the source gives them in different places.

How the values were obtained:
TGF-β1 = target: T1, TGF-β1 (Mus musculus, UniProt P04202); experiment: Shear-dependent TGF-β1 activation in platelet-rich plasma from NAC-treated mice (ELISA); type: in vivo; conditions: PRP from NAC-treated vs control mice, shear force of 1,800 s^−1 for 2 hours, ELISA (FIG. 4A)
T1 construct: Active TGF-β1 levels in platelet-rich plasma from NAC-treated (n=6) and -untreated (n=8) mice after in vitro stirring; from tissue; host or cells: mouse platelet-rich plasma (blood)

[1] = test system: aortic valves of LDLR mice on HFD; experiment: Histology and immunohistochemical staining of aortic valves of LDLR mice on HFD; type: in vivo; conditions: LDLR mice at 6 months on HFD, NAC 3-5 and 5-6 months combined, vs untreated
Description: Histology and immunofluorescent staining of aortic valve sections. Mice receiving HFD were euthanized at 6 months and perfused with PBS. Hearts with their attached ascending aorta were excised, fixed in 4% paraformaldehyde for 24 hours and processed for routine paraffin embedding. Tissues were cut in 5 μm thick sections in the middle of the heart to get maximum valve thickness (FIG. 12) and stained with picrosirius red for collagen. For immunofluorescent staining, tissue sections were deparaffinized and rehydrated by immersing in xylene and a series of graded alcohols, followed by heat (97° C.)-induced epitope retrieval using Tris-EDTA buffer, pH 9.0 for 30 minutes. Slides were incubated for 1 hour at RT with blocking buffer (1% BSA+0.3M glycine in Tris-NaCl-Tween buffer) and then incubated overnight at 4° C. with primary antibodies at final concentrations of 0.5 μg/ml. After washing in wash buffer (Tris-NaCl-Tween) and incubation with a fluorescent secondary antibody at RT for 2 hours, slides were washed with wash buffer three times and mounted with a fluorescence mounting medium containing diamidino-2-phenylindole (DAPI) to stain nuclei.
Images were photographed using Ziess 710 Confocal or Nikon eclipse 80i fluorescence microscope. Positively-stained areas and total valve areas in immunohistochemical and histological images were quantified as shown in FIG. 13. Primary antibodies used were anti-phospho-Smad2 (Ser465/467) (AB3849, Millipore), anti-vimentin (ab92547, Abcam), anti-α-SMA (904601, Biolegend), Isolectin B4 (121411, Life Technologies), anti-CD41 (14-0411, eBioscience), anti-CD62P (148301, Biolegend), and anti-collagen (SAB1402151, Sigma). Species-matched secondary antibodies conjugated to Alexa 488, Alexa 594, or Alexa 647 were used. Histology images were analyzed and quantified using ImageJ (NIH).

[2] = test system: TGF-β1platelet-KO-LDLR mice on HFD; experiment: Aortic stenosis progression in TGF-β1platelet-KO-LDLR mice on HFD, echocardiography; type: in vivo; conditions: TGF-β1platelet-KO-LDLR mice on HFD treated with NAC
From the text: Mice. Hypercholesterolemic mice deficient for low-density lipoprotein receptors (Ldlr−/−), which only express ApoB-100 (Ldlr−/−Apob100/100, LDLR), were obtained from Jackson Laboratories (B6; 129SLdlrtm1HerApobtm2Sgy/J, stock no. 003000). WT C57bl/6 mice were also obtained from the Jackson Laboratory (stock no. 000664) and served as controls. TGF-β1^platelet-KO-LDLR mice (Pf4Cre+Tgfb1f/f;Ldlr−/−Apob100/100;) and TGF-β1^flox-LDLR littermate controls (Tgfb1f/f;Ldlr−/−Apob100/100) were generated by crossing LDLR mice with Pf4Cre+;Tgfb1f/f mice, as shown in FIGS. 7A-B and Supplemental Table 5. […]
Experimental Design. […] Progression and severity (mild/moderate/severe) of AS were monitored at 0, 3, 6 and 9 months by echocardiography using non-invasive ultrasound imaging techniques. […]
Echocardiography. […] Electrode gel was used to enhance the physiologic readings. To ensure accuracy of all echo measurements, physiological parameters were monitored and recordings were only taken if the heart rate was 430-550 beats per minute, respiration was 20-100 breaths per minute, and body temperature was close to 37° C. […]
Measurement of AS parameters using a modified view of ultrasound imaging. […] LVOT was measured from the long-axis view and was used to calculate AV pressure and normalize the cusp separation (Lindman et al., 2016; Meyer et al., 2012). […]

[3] = test system: ascending aortic constriction (AAC) model; experiment: Cardiac fibrosis in ascending aortic constriction (AAC) model; type: in vivo, mice; conditions: high shear pressure overload AAC model, NAC treatment (data not shown)
From the text: Ascending Aortic Constriction. Ascending aortic constriction was induced by controlled constriction of the ascending aorta as described previously 26. Briefly, mice were anesthetized with 1.5% isoflurane and the ascending aorta was surgically exposed by a mid-thorax incision. A 2 7-0 suture was placed around both the aorta and an adjacent 27-gauge (0.41 mm OD) needle proximal to the origin of the innominate artery. […] Mice were sacrificed and tissues collected 1 month after the surgery.

[4] = cited from earlier work
[5] = cited from earlier work; remark: listed apart in the source

T1 sequence (P04202 30-278 limits assumed): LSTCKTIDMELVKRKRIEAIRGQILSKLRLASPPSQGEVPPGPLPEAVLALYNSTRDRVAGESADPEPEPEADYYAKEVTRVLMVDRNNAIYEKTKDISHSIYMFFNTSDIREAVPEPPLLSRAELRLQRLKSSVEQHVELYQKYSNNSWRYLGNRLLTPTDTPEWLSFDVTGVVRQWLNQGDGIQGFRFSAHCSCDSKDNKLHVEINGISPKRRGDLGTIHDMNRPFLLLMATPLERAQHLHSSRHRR
T1 sequence (P04202 279-390 limits assumed): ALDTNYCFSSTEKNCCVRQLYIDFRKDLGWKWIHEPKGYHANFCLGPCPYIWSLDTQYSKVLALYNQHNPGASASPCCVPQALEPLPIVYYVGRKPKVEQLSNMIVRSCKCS
T1 sequence (Q8CG19 24-1712 partner): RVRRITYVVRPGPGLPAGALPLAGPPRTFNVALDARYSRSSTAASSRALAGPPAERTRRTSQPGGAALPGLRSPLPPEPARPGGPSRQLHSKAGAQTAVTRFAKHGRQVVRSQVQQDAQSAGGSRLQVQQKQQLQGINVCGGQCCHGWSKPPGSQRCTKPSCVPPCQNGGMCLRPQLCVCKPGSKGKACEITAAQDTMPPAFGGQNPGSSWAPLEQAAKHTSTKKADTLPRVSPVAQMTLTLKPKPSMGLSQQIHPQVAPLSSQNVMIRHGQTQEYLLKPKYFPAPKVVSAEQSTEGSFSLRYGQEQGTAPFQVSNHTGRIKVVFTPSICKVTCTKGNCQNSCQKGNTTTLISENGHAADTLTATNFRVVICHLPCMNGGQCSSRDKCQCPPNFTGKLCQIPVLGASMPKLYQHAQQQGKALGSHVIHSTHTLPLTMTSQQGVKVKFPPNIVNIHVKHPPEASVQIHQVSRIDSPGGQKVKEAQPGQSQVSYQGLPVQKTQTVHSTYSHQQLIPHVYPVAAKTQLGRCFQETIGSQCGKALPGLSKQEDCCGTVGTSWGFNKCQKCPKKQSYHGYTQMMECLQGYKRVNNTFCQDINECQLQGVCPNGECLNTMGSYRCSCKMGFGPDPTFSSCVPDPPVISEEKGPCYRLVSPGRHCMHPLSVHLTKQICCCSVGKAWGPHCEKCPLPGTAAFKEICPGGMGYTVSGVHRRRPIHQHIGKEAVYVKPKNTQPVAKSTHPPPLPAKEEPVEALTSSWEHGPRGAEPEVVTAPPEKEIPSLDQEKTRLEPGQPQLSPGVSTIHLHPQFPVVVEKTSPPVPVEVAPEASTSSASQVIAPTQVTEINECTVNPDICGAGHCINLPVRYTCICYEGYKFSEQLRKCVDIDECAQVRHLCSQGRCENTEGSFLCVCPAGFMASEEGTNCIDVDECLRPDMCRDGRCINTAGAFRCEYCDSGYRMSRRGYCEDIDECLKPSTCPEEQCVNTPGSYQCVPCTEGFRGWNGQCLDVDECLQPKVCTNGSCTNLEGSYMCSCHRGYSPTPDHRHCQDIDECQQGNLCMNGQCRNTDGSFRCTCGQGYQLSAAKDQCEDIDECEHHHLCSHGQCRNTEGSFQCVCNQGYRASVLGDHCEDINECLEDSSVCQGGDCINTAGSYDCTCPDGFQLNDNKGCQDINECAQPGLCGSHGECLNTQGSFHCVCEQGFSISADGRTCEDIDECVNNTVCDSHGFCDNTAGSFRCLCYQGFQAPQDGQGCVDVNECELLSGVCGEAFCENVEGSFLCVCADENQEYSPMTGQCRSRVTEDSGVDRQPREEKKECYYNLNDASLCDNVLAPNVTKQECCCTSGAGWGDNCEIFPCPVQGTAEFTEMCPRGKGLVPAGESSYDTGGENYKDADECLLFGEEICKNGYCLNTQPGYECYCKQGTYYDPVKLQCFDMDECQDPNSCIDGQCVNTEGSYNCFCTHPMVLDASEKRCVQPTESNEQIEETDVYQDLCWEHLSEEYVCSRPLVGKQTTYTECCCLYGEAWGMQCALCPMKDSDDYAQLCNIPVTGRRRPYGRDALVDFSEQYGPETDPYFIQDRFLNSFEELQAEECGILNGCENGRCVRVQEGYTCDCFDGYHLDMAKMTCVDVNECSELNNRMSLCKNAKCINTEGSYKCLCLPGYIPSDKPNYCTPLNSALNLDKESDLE

## CC(=O)N[C@@H](CS)C(=O)O [NAC, N-acetylcysteine]
TGF-β1
  TGF-β1 activation (active TGF-β1 levels) in PRP: much lower
[1]
  aortic valve area: reduced
  fibrosis in aortic valves: reduced
  p-Smad2 staining in aortic valves: reduced
[2]
  AS progression: little to no further reduction; also recorded: did not show any effect
[3]
  cardiac fibrosis: inhibits cardiac fibrosis
[4]; alcohol
  solubility: soluble
[4]; chloroform
  solubility: practically insoluble
[4]; ether
  solubility: practically insoluble
[4]; water
  solubility: soluble
[5]; taken 4 hours after alcohol, dose-dependent
  liver damage: made liver damage worse
[5]; taken before alcohol
  liver damage: prevented liver damage
